Source: publication PMC11477289, “Low-Basicity 5-HT6 Receptor Ligands from the Group of Cyclic Arylguanidine Derivatives and Their Antiproliferative Activity Evaluation” (International Journal of Molecular Sciences, 2024)
Converted amounts (≈) assume the structure as drawn.

Experiments:
U-251 glioblastoma cells = assay: Antiproliferative activity (MTS), U-251; details: Homo sapiens, U-251, 72 h, read-out: IC50 Values U-251
[1] = Metabolic stability in mouse liver microsomes (MLMs); format: in vitro ADME; details: 120 min; for remaining at 2 h, 50 µM: mouse, mouse liver microsomes
Description: The metabolic stability of PR 68, PR 73, and PR 76 were determined in mouse liver microsomes (MLMs).
The metabolic stability of PR 68 was estimated with mouse liver microsomes (MLMs) (Sigma-Aldrich, St. Louis, MO, USA). […] Cold methanol was then added to the reaction mixture to quench the reaction. The precipitated MLMs were centrifuged, and the supernatant was analyzed by LC/MS with a Waters ACQUITY™ TQD system with a TQ detector (Waters, Milford, USA).
(1 picture or pasted object on this page, not shown here)

human 5-HT6 [2] = molecular target: T1, human 5-HT6 (Homo sapiens, UniProt P50406); assay: [3H]-LSD radioligand binding assay, 5-HT6R; details: HEK293 expressing human 5-HT6R, read-out: 5-HT6 Ki
T1 construct: expressed in transfected cells
T1 sequence (P50406 whole entry): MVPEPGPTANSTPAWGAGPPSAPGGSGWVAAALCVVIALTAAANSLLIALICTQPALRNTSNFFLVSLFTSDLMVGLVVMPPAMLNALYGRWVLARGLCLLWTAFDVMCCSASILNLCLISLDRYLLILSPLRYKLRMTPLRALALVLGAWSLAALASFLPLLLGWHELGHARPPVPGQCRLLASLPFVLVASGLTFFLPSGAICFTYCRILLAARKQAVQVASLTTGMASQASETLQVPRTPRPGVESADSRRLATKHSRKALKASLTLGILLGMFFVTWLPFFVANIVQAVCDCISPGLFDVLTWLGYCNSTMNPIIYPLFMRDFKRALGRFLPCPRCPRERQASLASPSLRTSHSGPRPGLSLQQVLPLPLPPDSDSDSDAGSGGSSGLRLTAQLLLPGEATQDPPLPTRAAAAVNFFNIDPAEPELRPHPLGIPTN
Description: Next, the ligands’ affinity for the 5-HT6 receptors was evaluated in the [^3H]-LSD radioligand binding assay. Experiments were performed in a stable HEK293 cell line expressing the human 5-HT6R.
The pellets were stored at −80 °C.

astrocyte cell line PG-4 = assay: Activity on normal astrocytes (MTS), PG-4; details: Felis catus, 72 h, read-out: IC50 Values PG-4
[3] = Chromatographic hydrophobicity index on C18 column (lipophilicity); format: physicochemical
Description: We began with an assay for lipophilicity, affinity for phospholipids (for 40 compounds), and drug binding to human serum albumin (HSA) (for 20 compounds), using chromatographic protocols developed by Valko [46] and implemented in our laboratory [47]. […] These methods allowed the determination of chromatographic hydrophobicity indices (CHIs), binding to HSA (%HSA), and phospholipids (CHIIAM) using a single-gradient elution experiment and comparison to reference substances.
The mobile phase flow rate was 1.5 mL/min, and the column was maintained at 30 °C. • Chiralpak® HSA (50 mm × 4 mm; 5 µm with safety guard column; Daicel Chiral Technologies, West Chester, PA, USA), mobile phase A: 50 mM ammonium acetate, mobile phase B: HPLC-grade isopropanol (VWR International, Leuven, Belgium). For the first 15 min, the linear gradient from 0 to 20% isopropanol was applied and then held at 20% isopropanol for 12 min. In the last 5 min of the sequence, the mobile phase mixture received a pure ammonium acetate solution. The column temperature was held at 30 °C, whereas the flow rate was 0.9 mL/min.
The reference substances for the calibration of HSA, C18, and IAM columns were purchased, respectively: acetanilide, butyrophenone, diclofenac, and octanonophenone (Alfa Aesar, Haverhill, MA, USA); acetophenone, benzimidazole, colchicine, indole, indometacin, paracetamol, and theophylline (Sigma-Aldrich, Steinheim, Germany); nicardipine and nizatidine (Cayman Chemical, Ann Arbor, MI, USA); carbamazepine, heptanophenone, hexanophenone, propiophenone, and valerophenone (Acros Organic, Pittsburg, PA, USA). Before chromatographic experiments, solutes were dissolved in dimethyl sulfoxide (Avantor Performance Materials Poland S.A., Gliwice, Poland) to obtain a 200 µg/mL concentration. The detection was performed in the UV region at the wavelength from 190 nm to 300 nm. The injected volume was 5 μL, and each compound was analyzed in triplicate.

Danio rerio = details: in vivo
Description: Selected compounds were evaluated for their cardiotoxicity on the Danio rerio experimental model following the OECD 236 test. […] To explore specific toxic effects of tested compounds on the central nervous systems, locomotor activity in the Danio rerio experimental model was evaluated. Studying the reaction of zebrafish larvae to light and dark conditions can be a valuable method for assessing neurotoxicity in behavioral studies. […] This response is characterized by a rapid, coordinated movement, often involving a quick burst of swimming or a change in direction. In our experimental model, we changed light into dark conditions. […] This behavior helps them avoid potential predators and maintain optimal environmental conditions.
To determine the toxicity of the compounds [66], the fish embryo toxicity (FET) test was performed on zebrafish (Danio rerio) according to OECD Test 236. […] At the end of the exposure period (96 hpf—hours postfertilization), acute toxicity was determined based on a positive outcome in any of the four visual indicators of lethality, including the coagulation of fertilized eggs, lack of somite formation, lack of detachment of the tailbud from the yolk sac, and lack of heartbeat. The value of LD50 was calculated. Heartbeats were recorded to observe cardiotoxic effects. […]

[4] = Fish embryo toxicity (FET) test, OECD 236; details: zebrafish (Danio rerio), in vivo, after 96 h of intoxication
Description: To determine the toxicity of the compounds [66], the fish embryo toxicity (FET) test was performed on zebrafish (Danio rerio) according to OECD Test 236. The collected embryos were transferred to a Petri dish with an E3 medium, consisting of 5 mM NaCl; 0.33 mM MgCl2; 0.33 mM CaCl2; and 0.17 mM KCl, and placed in 6-well plates, 10 embryos per well. Stock solutions were prepared in DMSO. The range of different concentrations of the solutions was prepared by dissolving stock solutions in the E3 medium each time directly before addition to the wells. The solutions were changed once daily, and the embryos were maintained in the incubator at 28.5 °C. At the end of the exposure period (96 hpf—hours postfertilization), acute toxicity was determined based on a positive outcome in any of the four visual indicators of lethality, including the coagulation of fertilized eggs, lack of somite formation, lack of detachment of the tailbud from the yolk sac, and lack of heartbeat. The value of LD50 was calculated. Heartbeats were recorded to observe cardiotoxic effects. A dose–response curve was generated using Prism 8.0.1 (GraphPad Software).
Figure 3 (A) Toxicity of PR 68 and PR 73 in vivo in Danio reiro embryo toxicity test. […] Cardiotoxicity of (B) PR 68 and (C) PR 73 measured as heart rate (beats per minute) on 5 dpf Danio rerio larvae, E3—fish embryo growth medium. […]

human 5-HT6 [5] = molecular target: T1, human 5-HT6; assay: Functional evaluation, cAMP (LANCE Ultra) in HEK293 cells; format: cell-based; details: antagonist mode, cAMP induced by 5-CT 1000 nM
Description: The supernatant was aspirated, and the cell pellet was resuspended in a stimulation buffer (1 × HBSS, 5 mM HEPES, 0.5 mM IBMX, 0.1% BSA).
The functional properties of compounds were evaluated using the LANCE Ultra cAMP detection kit (PerkinElmer). […] To investigate the antagonist activity, dopamine for D2R was added at a concentration of 10 nM, and for cell lines with 5-HT7R, 5-HT1AR, or 5-HT6R, 5-CT concentrations were adjusted, being, respectively, 10, 100, and 1000 nM, according to the receptor subtype.
For the quantification of cAMP levels, cells (5 µL) were incubated with a 5 µL mixture of necessary compounds for 30 min at room temperature in a 384-well white opaque microtiter plate (PerkinElmer). After incubation, the reaction was stopped, and cells were lysed by the addition of a 10 µL working solution (5 µL Eu-cAMP and 5 µL ULight-anti-cAMP). The assay plate was incubated for 1 h at room temperature. The time-resolved fluorescence resonance energy transfer (TR-FRET) signal was detected by an Infinite M1000 Pro (Tecan, Männedorf, Switzerland) using instrument settings from the LANCE Ultra cAMP detection kit manual.

[6] = system: MCF7 breast carcinoma cell line; assay: Antiproliferative activity (MTS), MCF7; details: Homo sapiens, MCF7, 72 h, read-out: IC50 Values MCF7
D2L receptor = D2L receptor (Homo sapiens, UniProt P14416); assay: [3H]-raclopride radioligand binding assay, D2
Chain of D2L receptor (P14416 whole entry): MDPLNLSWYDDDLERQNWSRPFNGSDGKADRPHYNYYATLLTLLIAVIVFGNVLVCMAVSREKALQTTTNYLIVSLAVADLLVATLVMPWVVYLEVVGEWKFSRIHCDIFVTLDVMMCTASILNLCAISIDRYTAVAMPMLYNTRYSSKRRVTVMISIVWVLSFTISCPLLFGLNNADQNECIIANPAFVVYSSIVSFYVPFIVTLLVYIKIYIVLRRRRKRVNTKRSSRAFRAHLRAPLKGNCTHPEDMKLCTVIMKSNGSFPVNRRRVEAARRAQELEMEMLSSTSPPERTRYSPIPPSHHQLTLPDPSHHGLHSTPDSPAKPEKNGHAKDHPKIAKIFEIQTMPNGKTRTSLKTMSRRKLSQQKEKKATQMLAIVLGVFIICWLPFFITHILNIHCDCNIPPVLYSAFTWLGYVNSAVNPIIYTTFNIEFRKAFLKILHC

[7] = Affinity to phospholipids, IAM column (CHI IAM); format: physicochemical; details: IAM.PC.DD2 column, pH 7.4
[8] = system: AsPC-1 pancreas adenocarcinoma cell line; assay: Antiproliferative activity (MTS), AsPC-1; details: Homo sapiens, ASPC1, 72 h, read-out: IC50 Values AsPC-1

SMILES | IC50 (U-251 glioblastoma cells) | metabolized [1] | remaining at 2 h, 50 µM [1] | Ki (human 5-HT6 [2]) | IC50 (astrocyte cell line PG-4) | CHI C18 pH 2.6 [3] | CHI C18 pH 7.4 [3] | CHI C18 pH 10.5 [3] | cardiotoxicity (heart rate) (Danio rerio) | LC50 at 96 h [4] | Kb (human 5-HT6 [5]) | IC50 [6] | Ki (D2L receptor) | CHI IAM [7] | IC50 [8]
CC1NC(NS(=O)(=O)c2cccc3ccccc23)=Nc2cccc(Cl)c21 (centres unmarked) [PR 68, N -(5-chloro-4-methyl-3,4-dihydroquinazolin-2-yl)naphthalene-1-sulfonamide] | > 25 µM | 49% | 51.1% | 0.037 ± 0.008 µM | > 25 µM | 101.4 | 99.2 | 103.0 | do not show cardiotoxic properties | 7.82 mg/L (≈ 20.3 µM) | 0.079 µM | > 25 µM | 622 µM | 45.8 | > 25 µM
CC1NC(NS(=O)(=O)c2cccc3ccccc23)=Nc2cccc(F)c21 (centres unmarked) [PR 73, N -(5-fluoro-4-methyl-3,4-dihydroquinazolin-2-yl)naphthalene-1-sulfonamide] | > 25 µM |  | 24.6% | 0.043 ± 0.011 µM | > 25 µM | 94.6 | 94.9 | 96.5 | do not show cardiotoxic properties | 10.2 mg/L (≈ 27.5 µM) | 0.134 µM | > 25 µM | 146 µM | 42.3 | > 25 µM
